# US20240101546A1, “HETEROARYL-ACETYLENES, PHARMACEUTICAL COMPOSITIONS THEREOF, AND THEIR THERAPEUTIC APPLICATIONS” (Eubulus Biotherapeutics Inc., priority 2020, published 2024)
# Tested on: lung cancer cell line NCI-H82
# Assay: Cell proliferation assay, NCI-H82 (CELL-TITER GLO)
# Type: cell-based
# Details: Homo sapiens, NCI-H82, 72 h, NCI-H82 cells, 72 h incubation, cell viability by CELL-TITER GLO, top concentration 1 μM; read-out: EC50, Inhibition of NCl-H82 Cell Proliferation
# Experimental: The activity of a compound was determined in a cell proliferation assay using the lung cancer cell line NCI-H82. Cells (1,000 cells per well) were cultured with RPMI1640 in a 384-well tissue culture plate. After incubated overnight, the compound was added at predetermined concentrations, starting with 1 μM and followed by a 3-fold serial dilution. After the cells were incubated for 72 h, cell viability was determined using a CELL-TITER GLO assay. The CELL-TITER GLO reagent (25 μL) was added to each well and the luminescence was measured by a multimode microplate reader after a brief period of shaking. EC50 values were determined for the compound. The results are summarized in Table 1, wherein A represents a value no greater than 200 nM, B represents a value greater than 200 nM but no greater than 1 μM, C represents a value greater than 1 μM but no greater than […], and D represents a value greater than 5 μM.
row,Structure (SMILES),EC50
1,"C#Cc1nc(NC(=O)N[C@@H](CO)c2ccc(-c3cc(F)cnc3C3(C#N)CC3)cc2)cs1 [Compound A64, (R)-1-(1-(4-(2-(1-Cyanocyclopropyl)-5-fluoropyridin-3-yl)phenyl)-2-hydroxy-ethyl)-3-(2-ethynylthiazol-4-yl)urea]",≤ 200 nM
2,"C#Cc1nc(NC(=O)N[C@@H](CO)c2ccc(-c3cccnc3C3(C#N)CC3)c(Cl)c2)cs1 [Compound A65, (R)-1-(1-(3-Chloro-4-(2-(1-cyanocyclopropyl)pyridin-3-yl)phenyl)-2-hydroxy-ethyl)-3-(2-ethynylthiazol-4-yl)urea]",≤ 200 nM
3,"C#Cc1nc(NC(=O)N[C@H](CO)c2ccc(-c3cccnc3C3(C#N)CC3)c(Cl)c2)cs1 [Compound A66, (S)-1-(1-(3-Chloro-4-(2-(1-cyanocyclopropyl)pyridin-3-yl)phenyl)-2-hydroxy-ethyl)-3-(2-ethynylthiazol-4-yl)urea]",≤ 200 nM
4,"C#Cc1nc(NC(=O)N(C)[C@@H](CO)c2ccc(-c3cccnc3C3(C#N)CC3)c(Cl)c2)cs1 [Compound A67, (R)-1-(1-(3-Chloro-4-(2-(1-cyanocyclopropyl)pyridin-3-yl)phenyl)-2-hydroxy-ethyl)-3-(2-ethynylthiazol-4-yl)-1-methylurea]",≤ 200 nM
5,"C#Cc1nc(NC(=O)N[C@@H](CO)c2ccc(-c3cccnc3C3(C#N)CC3)c(F)c2)cs1 [Compound A68, (R)-1-(1-(4-(2-(1-Cyanocyclopropyl)pyridin-3-yl)-3-fluorophenyl)-2-hydroxy-ethyl)-3-(2-ethynylthiazol-4-yl)urea]",≤ 200 nM
6,"C#Cc1nc(NC(=O)N[C@@H](COC(N)=O)c2ccc(-c3cccnc3C3(C#N)CC3)c(Cl)c2)cs1 [Compound A69, (R)-2-(3-Chloro-4-(2-(1-cyanocyclopropyl)pyridin-3-yl)phenyl)-2-(3-(2-ethynyl-thiazol-4-yl)ureido)ethyl carbamate]",≤ 200 nM
7,"C#Cc1nc(NC(=O)N(C)[C@@H](COC(N)=O)c2ccc(-c3cccnc3C3(C#N)CC3)c(Cl)c2)cs1 [Compound A70, (R)-2-(3-Chloro-4-(2-(1-cyanocyclopropyl)pyridin-3-yl)phenyl)-2-(3-(2-ethynyl-thiazol-4-yl)-1-methylureido)ethyl carbamate]",≤ 200 nM
8,"C#Cc1nnc(NC(=O)N[C@@H](CO)c2ccc(-c3cccnc3C3(C#N)CC3)c(Cl)c2)s1 [Compound A71, (R)-1-(1-(3-Chloro-4-(2-(1-cyanocyclopropyl)pyridin-3-yl)phenyl)-2-hydroxy-ethyl)-3-(5-ethynyl-1,3,4-thiadiazol-2-yl)urea]",≤ 200 nM
9,"C#Cc1nc(NC(=O)N[C@@H](CS(C)(=O)=O)c2ccc(-c3cccnc3C3(C#N)CC3)c(Cl)c2)cs1 [Compound A72, (R)-1-(1-(3-Chloro-4-(2-(1-cyanocyclopropyl)pyridin-3-yl)phenyl)-2-(methyl-sulfonyl)ethyl)-3-(2-ethynylthiazol-4-yl)urea]",≤ 200 nM
10,"C#Cc1nc(NC(=O)N[C@@H](CS(N)(=O)=O)c2ccc(-c3cccnc3C3(C#N)CC3)c(Cl)c2)cs1 [Compound A73, (R)-2-(3-Chloro-4-(2-(1-cyanocyclopropyl)pyridin-3-yl)phenyl)-2-(3-(2-ethynyl-thiazol-4-yl)ureido)ethanesulfonamide]",≤ 200 nM
11,"C#Cc1nc(NC(=O)N[C@@H](C(=O)NC)c2ccc(-c3cccnc3C3(C#N)CC3)c(Cl)c2)cs1 [Compound A74, (R)-2-(3-Chloro-4-(2-(1-cyanocyclopropyl)pyridin-3-yl)phenyl)-2-(3-(2-ethynyl-thiazol-4-yl)ureido)-N-methylacetamide]",≤ 200 nM
12,"C#Cc1nc(NC(=O)N[C@@H](CO)c2ccc(-c3ccc(F)cc3C3(C#N)CC3)cn2)cs1 [Compound A75, (R)-1-(1-(5-(2-(1-Cyanocyclopropyl)-4-fluorophenyl)pyridin-2-yl)-2-hydroxy-ethyl)-3-(2-ethynylthiazol-4-yl)urea]",≤ 200 nM
13,"C#Cc1nc(NC(=O)N[C@@H](COC(N)=O)c2ccc(-c3ccc(F)cc3C3(C#N)CC3)cn2)cs1 [Compound A76, (R)-2-(5-(2-(1-Cyanocyclopropyl)-4-fluorophenyl)pyridin-2-yl)-2-(3-(2-ethynyl-thiazol-4-yl)ureido)ethyl carbamate]",≤ 200 nM
14,"C#Cc1nc(NC(=O)N[C@@H](CO)c2ccc(-c3cc(F)ccc3C3(C#N)CC3)cn2)cs1 [Compound A77, (R)-1-(1-(5-(2-(1-Cyanocyclopropyl)-5-fluorophenyl)pyridin-2-yl)-2-hydroxyethyl)-3-(2-ethynylthiazol-4-yl)urea]",≤ 200 nM
15,"C#Cc1nc(NC(=O)N[C@@H](CO)c2ccc(-c3c(F)cccc3C3(C#N)CC3)cn2)cs1 [Compound A78, (R)-1-(1-(5-(2-(1-Cyanocyclopropyl)-6-fluorophenyl)pyridin-2-yl)-2-hydroxy-ethyl)-3-(2-ethynylthiazol-4-yl)urea]",≤ 200 nM
16,"C#Cc1nc(NC(=O)N[C@@H](CO)c2ccc(-c3c(F)cc(F)cc3C3(C#N)CC3)cn2)cs1 [Compound A79, (R)-1-(1-(5-(2-(1-Cyanocyclopropyl)-4,6-difluorophenyl)pyridin-2-yl)-2-hydroxyethyl)-3-(2-ethynylthiazol-4-yl)urea]",≤ 200 nM
17,"C#Cc1nc(NC(=O)N[C@@H](CO)c2ccc(-c3ccccc3C3CC3(F)F)cn2)cs1 (stereo partly drawn) [Compound A80, 1-((1R)-1-(5-(2-(2,2-Difluorocyclopropyl)phenyl)pyridin-2-yl)-2-hydroxyethyl)-3-(2-ethynylthiazol-4-yl)urea]",≤ 200 nM
18,"C#Cc1nc(NC(=O)N[C@@H](CO)c2ccc(-c3ccc(F)cc3C3CC3(F)F)cn2)cs1 (stereo partly drawn) [Compound A81, 1-((1R)-1-(5-(2-(2,2-Difluorocyclopropyl)-4-fluorophenyl)pyridin-2-yl)-2-hydroxyethyl)-3-(2-ethynylthiazol-4-yl)urea]",≤ 200 nM
19,"C#Cc1nc(NC(=O)N(C)[C@@H](CO)c2ccc(-c3ccc(F)cc3C3CC3(F)F)cn2)cs1 (stereo partly drawn) [Compound A82, 1-((1R)-1-(5-(2-(2,2-Difluorocyclopropyl)-4-fluorophenyl)pyridin-2-yl)-2-hydroxyethyl)-3-(2-ethynylthiazol-4-yl)-1-methylurea]",≤ 200 nM
20,"C#Cc1nc(NC(=O)N[C@@H](COC(N)=O)c2ccc(-c3ccc(F)cc3C3CC3(F)F)cn2)cs1 (stereo partly drawn) [Compound A83, (2R)-2-(5-(2-(2,2-Difluorocyclopropyl)-4-fluorophenyl)pyridin-2-yl)-2-(3-(2-ethynylthiazol-4-yl)ureido)ethyl carbamate]",≤ 200 nM
21,"C#Cc1nc(NC(=O)N(C)[C@@H](COC(N)=O)c2ccc(-c3ccc(F)cc3C3CC3(F)F)cn2)cs1 (stereo partly drawn) [Compound A84, (2R)-2-(5-(2-(2,2-Difluorocyclopropyl)-4-fluorophenyl)pyridin-2-yl)-2-(3-(2-ethynylthiazol-4-yl)-1-methylureido)ethyl carbamate]",≤ 200 nM
22,"C#Cc1nnc(NC(=O)N[C@@H](CO)c2ccc(-c3ccc(F)cc3C3CC3(F)F)cn2)s1 (stereo partly drawn) [Compound A85, 1-((1R)-1-(5-(2-(2,2-Difluorocyclopropyl)-4-fluorophenyl)pyridin-2-yl)-2-hydroxyethyl)-3-(5-ethynyl-1,3,4-thiadiazol-2-yl)urea]",≤ 200 nM
23,"C#Cc1nnc(NC(=O)N(C)[C@@H](CO)c2ccc(-c3ccc(F)cc3C3CC3(F)F)cn2)s1 (stereo partly drawn) [Compound A86, 1-((1R)-1-(5-(2-(2,2-Difluorocyclopropyl)-4-fluorophenyl)pyridin-2-yl)-2-hydroxyethyl)-3-(5-ethynyl-1,3,4-thiadiazol-2-yl)-1-methylurea]",≤ 200 nM
24,"C#Cc1nnc(NC(=O)N[C@@H](COC(N)=O)c2ccc(-c3ccc(F)cc3C3CC3(F)F)cn2)s1 (stereo partly drawn) [Compound A87, (2R)-2-(5-(2-(2,2-Difluorocyclopropyl)-4-fluorophenyl)pyridin-2-yl)-2-(3-(5-ethynyl-1,3,4-thiadiazol-2-yl)ureido)ethyl carbamate]",≤ 200 nM
25,"C#Cc1nc(NC(=O)N[C@@H](CO)c2ccc(-c3cccc(N4CCCC4)n3)cc2)cs1 [Compound A88, (R)-1-(2-Ethynylthiazol-4-yl)-3-(2-hydroxy-1-(4-(6-(pyrrolidin-1-yl)pyridin-2-yl)phenyl)ethyl)urea]",≤ 200 nM
26,"C#Cc1nc(NC(=O)N[C@@H](CO)c2ccc(-c3cccc(N4CCCC4)n3)cn2)cs1 [Compound A89, (R)-1-(2-Ethynylthiazol-4-yl)-3-(2-hydroxy-1-(6-(pyrrolidin-1-yl)-[2,3′-bipyridin]-6′-yl)ethyl)urea]",≤ 200 nM
27,"C#Cc1ncc(NC(=O)N[C@@H](COC(N)=O)c2ccc(-c3cccc(N4CCCC4)n3)cn2)s1 [Compound A90, (R)-2-(3-(2-Ethynylthiazol-5-yl)ureido)-2-(6-(pyrrolidin-1-yl)-[2,3′-bipyridin]-6′-yl)ethyl carbamate]",≤ 200 nM
28,"C#Cc1nc(NC(=O)N(C)[C@@H](CO)c2ccc(-c3cccc(N4CCCC4)n3)cn2)cs1 [Compound A91, (R)-3-(2-Ethynylthiazol-4-yl)-1-(2-hydroxy-1-(6-(pyrrolidin-1-yl)-[2,3′-bipyridin]-6′-yl)ethyl)-1-methylurea]",≤ 200 nM
29,"C#Cc1nc(NC(=O)N(C)[C@@H](COC(N)=O)c2ccc(-c3cccc(N4CCCC4)n3)cn2)cs1 [Compound A92, (R)-2-(3-(2-Ethynylthiazol-4-yl)-1-methylureido)-2-(6-(pyrrolidin-1-yl)-[2,3′-bipyridin]-6′-yl)ethyl carbamate]",≤ 200 nM
30,"C#Cc1nnc(NC(=O)N[C@@H](CO)c2ccc(-c3cccc(N4CCCC4)n3)cc2)s1 [Compound A93, (R)-1-(5-Ethynyl-1,3,4-thiadiazol-2-yl)-3-(2-hydroxy-1-(4-(6-(pyrrolidin-1-yl)-pyridin-2-yl)phenyl)ethyl)urea]",≤ 200 nM
